Measured values from article PMC7026418, “The kinase polypharmacology landscape of clinical PARP inhibitors” (Scientific Reports, 2020).
Like-named read-outs stand apart in the source and are kept apart here. Blank lines part the entries; values can stand above or below the compound they belong to.

Columns and labels:
Assay in all cases: biochemical
Design in all cases: DiscoveRx KINOMEscan active site-directed competition binding; percent of control kinase bound to immobilised ligand
[1] = molecular target: EGFR(E746-A750del) (Homo sapiens, UniProt P00533, DEL746-750)
Sequence of EGFR(E746-A750del) (P00533 with tags, fused parts or gaps DEL746-750): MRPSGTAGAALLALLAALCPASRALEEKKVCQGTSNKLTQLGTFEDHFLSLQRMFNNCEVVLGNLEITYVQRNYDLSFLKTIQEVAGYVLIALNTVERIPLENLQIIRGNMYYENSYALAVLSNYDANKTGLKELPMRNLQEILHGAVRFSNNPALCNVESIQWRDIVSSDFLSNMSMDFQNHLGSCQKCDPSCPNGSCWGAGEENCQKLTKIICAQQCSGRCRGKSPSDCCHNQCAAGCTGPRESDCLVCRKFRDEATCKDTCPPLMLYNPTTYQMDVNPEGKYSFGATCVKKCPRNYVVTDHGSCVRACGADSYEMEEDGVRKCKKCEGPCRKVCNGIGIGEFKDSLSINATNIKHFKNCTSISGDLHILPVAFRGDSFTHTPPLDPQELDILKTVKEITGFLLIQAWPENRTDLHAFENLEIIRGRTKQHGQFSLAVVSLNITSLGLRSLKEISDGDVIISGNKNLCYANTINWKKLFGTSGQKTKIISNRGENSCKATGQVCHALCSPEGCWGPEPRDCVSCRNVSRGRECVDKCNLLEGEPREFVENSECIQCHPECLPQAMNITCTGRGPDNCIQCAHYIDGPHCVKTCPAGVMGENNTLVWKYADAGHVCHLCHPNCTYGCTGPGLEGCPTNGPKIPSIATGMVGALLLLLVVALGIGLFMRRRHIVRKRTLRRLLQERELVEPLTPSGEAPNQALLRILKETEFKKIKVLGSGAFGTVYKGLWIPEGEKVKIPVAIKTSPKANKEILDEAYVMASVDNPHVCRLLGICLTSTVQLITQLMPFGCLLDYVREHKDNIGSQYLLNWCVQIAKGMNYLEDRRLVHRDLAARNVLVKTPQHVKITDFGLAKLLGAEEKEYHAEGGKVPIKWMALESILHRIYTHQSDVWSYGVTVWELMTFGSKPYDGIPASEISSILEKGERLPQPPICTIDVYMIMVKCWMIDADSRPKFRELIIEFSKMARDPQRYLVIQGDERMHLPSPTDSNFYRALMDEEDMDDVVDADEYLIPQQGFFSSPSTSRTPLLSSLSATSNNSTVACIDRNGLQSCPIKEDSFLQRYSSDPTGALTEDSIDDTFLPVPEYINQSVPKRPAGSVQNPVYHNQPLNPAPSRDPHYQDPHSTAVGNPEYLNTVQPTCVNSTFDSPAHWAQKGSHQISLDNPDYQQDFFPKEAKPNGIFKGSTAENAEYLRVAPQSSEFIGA

[2] = molecular target: T1, STK36 (Homo sapiens, UniProt Q9NRP7)
T1 sequence (Q9NRP7 1-1315): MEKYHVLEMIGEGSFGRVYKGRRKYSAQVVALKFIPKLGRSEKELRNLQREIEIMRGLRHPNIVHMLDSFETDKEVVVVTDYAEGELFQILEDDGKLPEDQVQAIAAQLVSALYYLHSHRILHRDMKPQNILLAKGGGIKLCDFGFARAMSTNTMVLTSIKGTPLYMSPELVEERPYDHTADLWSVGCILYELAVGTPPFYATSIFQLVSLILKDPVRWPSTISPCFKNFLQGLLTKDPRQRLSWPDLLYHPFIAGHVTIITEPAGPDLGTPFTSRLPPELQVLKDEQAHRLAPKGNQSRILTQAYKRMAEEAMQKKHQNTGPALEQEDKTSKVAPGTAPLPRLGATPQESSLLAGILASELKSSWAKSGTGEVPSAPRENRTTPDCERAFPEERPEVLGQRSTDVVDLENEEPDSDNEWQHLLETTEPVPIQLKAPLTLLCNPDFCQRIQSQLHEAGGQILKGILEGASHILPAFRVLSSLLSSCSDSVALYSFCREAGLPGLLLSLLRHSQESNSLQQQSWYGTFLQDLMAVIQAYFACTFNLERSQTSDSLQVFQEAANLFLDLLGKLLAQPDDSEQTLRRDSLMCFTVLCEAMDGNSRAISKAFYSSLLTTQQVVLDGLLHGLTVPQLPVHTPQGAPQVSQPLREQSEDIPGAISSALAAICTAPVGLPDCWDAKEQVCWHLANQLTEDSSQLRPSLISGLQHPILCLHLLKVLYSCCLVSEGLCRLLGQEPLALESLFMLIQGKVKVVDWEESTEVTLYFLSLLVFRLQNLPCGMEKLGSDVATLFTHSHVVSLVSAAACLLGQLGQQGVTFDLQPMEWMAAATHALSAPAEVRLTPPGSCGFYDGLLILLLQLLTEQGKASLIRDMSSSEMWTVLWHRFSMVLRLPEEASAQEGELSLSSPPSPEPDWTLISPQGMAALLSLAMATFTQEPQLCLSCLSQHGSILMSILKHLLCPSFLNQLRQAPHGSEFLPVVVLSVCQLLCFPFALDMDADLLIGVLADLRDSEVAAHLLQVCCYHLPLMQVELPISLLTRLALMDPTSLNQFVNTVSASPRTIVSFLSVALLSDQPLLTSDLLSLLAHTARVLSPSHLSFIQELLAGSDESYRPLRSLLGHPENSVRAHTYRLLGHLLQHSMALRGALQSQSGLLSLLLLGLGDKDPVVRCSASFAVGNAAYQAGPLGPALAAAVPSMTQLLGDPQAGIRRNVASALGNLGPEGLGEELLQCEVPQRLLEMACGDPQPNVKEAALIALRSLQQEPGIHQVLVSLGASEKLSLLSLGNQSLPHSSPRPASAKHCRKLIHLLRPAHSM

[3] = molecular target: MAP3K4 (Homo sapiens, UniProt Q9Y6R4)
Sequence of MAP3K4 (Q9Y6R4 whole entry): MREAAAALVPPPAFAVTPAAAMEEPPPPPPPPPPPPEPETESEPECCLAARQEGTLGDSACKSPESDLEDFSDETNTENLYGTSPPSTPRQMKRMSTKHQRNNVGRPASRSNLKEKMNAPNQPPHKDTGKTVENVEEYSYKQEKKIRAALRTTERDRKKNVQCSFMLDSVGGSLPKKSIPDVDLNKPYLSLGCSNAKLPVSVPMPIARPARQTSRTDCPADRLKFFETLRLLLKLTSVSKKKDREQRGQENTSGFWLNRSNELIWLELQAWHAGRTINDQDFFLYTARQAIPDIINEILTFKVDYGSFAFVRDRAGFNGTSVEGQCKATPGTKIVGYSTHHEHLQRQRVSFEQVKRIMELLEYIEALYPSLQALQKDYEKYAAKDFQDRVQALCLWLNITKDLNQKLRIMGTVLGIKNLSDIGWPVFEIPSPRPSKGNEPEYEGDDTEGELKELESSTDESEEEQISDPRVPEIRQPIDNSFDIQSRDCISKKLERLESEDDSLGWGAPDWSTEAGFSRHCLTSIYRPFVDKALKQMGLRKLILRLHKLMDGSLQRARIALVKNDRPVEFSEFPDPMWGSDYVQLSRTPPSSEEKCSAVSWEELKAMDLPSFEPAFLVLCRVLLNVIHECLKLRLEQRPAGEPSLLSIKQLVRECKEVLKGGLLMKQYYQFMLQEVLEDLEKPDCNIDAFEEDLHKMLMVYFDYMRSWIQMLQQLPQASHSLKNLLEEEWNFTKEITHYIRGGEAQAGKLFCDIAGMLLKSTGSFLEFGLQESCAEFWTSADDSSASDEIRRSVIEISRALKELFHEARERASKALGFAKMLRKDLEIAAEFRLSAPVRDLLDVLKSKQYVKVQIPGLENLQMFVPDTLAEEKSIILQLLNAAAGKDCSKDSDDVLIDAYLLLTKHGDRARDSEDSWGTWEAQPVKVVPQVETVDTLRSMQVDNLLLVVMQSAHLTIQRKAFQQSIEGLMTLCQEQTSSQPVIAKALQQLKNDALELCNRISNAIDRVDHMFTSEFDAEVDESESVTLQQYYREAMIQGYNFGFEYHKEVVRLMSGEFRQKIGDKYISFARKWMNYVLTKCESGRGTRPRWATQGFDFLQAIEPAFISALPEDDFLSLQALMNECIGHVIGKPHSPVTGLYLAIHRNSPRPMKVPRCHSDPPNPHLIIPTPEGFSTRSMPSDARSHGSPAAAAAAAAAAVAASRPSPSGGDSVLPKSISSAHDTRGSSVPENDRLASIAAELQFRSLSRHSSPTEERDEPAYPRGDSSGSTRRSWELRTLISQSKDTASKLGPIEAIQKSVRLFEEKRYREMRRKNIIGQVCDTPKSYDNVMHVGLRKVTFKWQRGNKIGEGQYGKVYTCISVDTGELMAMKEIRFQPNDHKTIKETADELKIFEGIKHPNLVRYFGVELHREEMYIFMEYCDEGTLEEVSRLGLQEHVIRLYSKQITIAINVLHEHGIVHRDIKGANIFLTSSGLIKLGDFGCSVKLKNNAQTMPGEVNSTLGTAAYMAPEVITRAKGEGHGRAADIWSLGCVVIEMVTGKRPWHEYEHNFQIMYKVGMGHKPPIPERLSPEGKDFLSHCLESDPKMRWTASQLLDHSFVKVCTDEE

[4] = molecular target: T2, YSK1 (Homo sapiens, UniProt O00506)
T2 construct: gene STK25

[5] = molecular target: FER (Homo sapiens, UniProt P16591)
Sequence of FER (P16591 whole entry): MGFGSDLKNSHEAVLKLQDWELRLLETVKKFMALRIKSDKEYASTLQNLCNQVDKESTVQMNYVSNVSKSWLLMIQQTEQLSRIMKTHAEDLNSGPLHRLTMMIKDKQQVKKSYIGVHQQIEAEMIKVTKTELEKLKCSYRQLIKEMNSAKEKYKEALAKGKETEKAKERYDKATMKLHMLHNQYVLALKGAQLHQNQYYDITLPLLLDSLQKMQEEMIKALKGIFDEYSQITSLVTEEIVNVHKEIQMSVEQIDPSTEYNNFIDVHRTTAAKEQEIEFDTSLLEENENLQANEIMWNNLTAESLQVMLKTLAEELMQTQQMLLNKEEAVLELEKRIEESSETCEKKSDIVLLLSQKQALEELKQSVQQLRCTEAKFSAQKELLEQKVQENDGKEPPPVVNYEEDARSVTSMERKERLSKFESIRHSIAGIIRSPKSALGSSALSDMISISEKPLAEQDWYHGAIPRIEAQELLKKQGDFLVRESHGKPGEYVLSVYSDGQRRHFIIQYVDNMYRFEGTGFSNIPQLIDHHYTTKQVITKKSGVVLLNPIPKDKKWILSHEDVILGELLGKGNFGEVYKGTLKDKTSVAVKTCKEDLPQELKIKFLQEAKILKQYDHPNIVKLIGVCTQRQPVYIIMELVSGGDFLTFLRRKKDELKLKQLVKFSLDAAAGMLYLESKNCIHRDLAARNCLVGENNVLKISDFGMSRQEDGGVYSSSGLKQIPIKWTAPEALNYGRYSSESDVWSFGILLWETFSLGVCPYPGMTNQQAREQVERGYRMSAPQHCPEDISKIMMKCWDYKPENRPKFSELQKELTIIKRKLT

[6] = molecular target: T3, ABL1-nonphosphorylated (Homo sapiens, UniProt P00519)
T3 construct: nonphosphorylated
T3 sequence (P00519 whole entry): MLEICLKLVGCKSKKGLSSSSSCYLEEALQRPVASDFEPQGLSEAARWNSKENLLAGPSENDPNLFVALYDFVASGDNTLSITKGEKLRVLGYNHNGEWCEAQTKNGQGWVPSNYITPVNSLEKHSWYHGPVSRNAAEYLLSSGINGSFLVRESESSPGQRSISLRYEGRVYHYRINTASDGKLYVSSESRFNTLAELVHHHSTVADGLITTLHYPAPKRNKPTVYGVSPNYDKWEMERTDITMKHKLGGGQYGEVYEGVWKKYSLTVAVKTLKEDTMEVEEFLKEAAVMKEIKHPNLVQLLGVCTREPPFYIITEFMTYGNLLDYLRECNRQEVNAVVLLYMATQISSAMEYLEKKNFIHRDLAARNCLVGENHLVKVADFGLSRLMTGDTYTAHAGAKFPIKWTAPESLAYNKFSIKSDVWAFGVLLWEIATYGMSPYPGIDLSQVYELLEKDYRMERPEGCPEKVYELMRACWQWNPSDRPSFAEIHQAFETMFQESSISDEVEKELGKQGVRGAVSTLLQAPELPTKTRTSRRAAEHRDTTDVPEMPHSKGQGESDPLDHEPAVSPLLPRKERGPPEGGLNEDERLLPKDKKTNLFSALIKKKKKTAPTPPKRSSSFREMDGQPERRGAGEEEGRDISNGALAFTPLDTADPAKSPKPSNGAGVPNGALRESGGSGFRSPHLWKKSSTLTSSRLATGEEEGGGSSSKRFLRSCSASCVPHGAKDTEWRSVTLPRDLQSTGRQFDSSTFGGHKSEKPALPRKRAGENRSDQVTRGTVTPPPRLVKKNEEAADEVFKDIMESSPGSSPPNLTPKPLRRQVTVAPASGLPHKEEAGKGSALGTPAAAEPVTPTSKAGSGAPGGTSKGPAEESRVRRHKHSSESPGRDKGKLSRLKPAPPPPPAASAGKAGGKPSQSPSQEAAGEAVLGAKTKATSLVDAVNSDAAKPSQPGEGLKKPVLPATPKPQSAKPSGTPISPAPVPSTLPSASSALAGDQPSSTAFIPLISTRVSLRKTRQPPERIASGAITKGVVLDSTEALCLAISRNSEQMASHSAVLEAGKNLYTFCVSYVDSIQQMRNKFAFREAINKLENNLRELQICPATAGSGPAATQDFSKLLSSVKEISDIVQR

[7] = molecular target: EGFR(L747-S752del, P753S) (Homo sapiens, UniProt P00533, DEL747-752/P753S)
[8] = molecular target: T4, TSSK1B (Homo sapiens, UniProt Q9BXA7)
T4 sequence (Q9BXA7 1-367): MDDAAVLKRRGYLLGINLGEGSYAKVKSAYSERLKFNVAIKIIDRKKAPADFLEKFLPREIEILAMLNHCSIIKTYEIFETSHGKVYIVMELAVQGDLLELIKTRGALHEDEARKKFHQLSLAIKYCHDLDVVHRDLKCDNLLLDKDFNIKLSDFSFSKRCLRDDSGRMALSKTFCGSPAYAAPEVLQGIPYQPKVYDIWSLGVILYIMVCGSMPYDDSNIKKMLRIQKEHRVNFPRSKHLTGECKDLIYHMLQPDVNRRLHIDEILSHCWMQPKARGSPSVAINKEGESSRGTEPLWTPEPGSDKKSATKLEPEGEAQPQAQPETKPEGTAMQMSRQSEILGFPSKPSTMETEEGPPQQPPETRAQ

[9] = molecular target: T5, PIP5K2B (Homo sapiens, UniProt P78356)
T5 construct: gene PIP4K2B
T5 sequence (P78356 1-416): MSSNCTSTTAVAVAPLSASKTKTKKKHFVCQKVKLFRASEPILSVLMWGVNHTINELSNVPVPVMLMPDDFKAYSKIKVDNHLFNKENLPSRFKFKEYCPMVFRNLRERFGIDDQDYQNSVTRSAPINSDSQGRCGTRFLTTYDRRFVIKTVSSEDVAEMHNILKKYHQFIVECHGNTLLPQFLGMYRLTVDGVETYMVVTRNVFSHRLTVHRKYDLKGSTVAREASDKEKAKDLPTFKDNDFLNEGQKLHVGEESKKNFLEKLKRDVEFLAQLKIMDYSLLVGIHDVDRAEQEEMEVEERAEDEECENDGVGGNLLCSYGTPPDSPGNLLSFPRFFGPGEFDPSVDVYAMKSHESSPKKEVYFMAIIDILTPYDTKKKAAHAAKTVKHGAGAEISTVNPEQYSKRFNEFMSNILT

[10] = read-out: Niraparib (MK-4827) / %Ctrl @ 10000nM
[11] = read-out: Rucaparib / %Ctrl @ 10000nM, binding competition, % of control
[12] = read-out: Olaparib / %Ctrl @ 10000nM
[13] = read-out: Talazoparib (BMN 673) / %Ctrl @ 10000nM

Structure (SMILES): NC(=O)c1cccc2cn(-c3ccc([C@@H]4CCCNC4)cc3)nc12 [Niraparib]
percent of control binding at 10 µM [1, 10]: 96% | percent of control binding at 10 µM [2, 10]: 88% | percent of control binding at 10 µM [3, 10]: 94% | percent of control binding at 10 µM [4, 10]: 99% | percent of control binding at 10 µM [5, 10]: 93% | percent of control binding at 10 µM [6, 10]: 94% | percent of control binding at 10 µM [7, 10]: 93% | percent of control binding at 10 µM [8, 10]: 65% | percent of control binding at 10 µM [9, 10]: 80%

percent of control binding at 10 µM [1, 11]: 81% | percent of control binding at 10 µM [2, 11]: 69% | percent of control binding at 10 µM [3, 11]: 100% | percent of control binding at 10 µM [4, 11]: 87% | percent of control binding at 10 µM [5, 11]: 95% | percent of control binding at 10 µM [6, 11]: 82% | percent of control binding at 10 µM [7, 11]: 100% | percent of control binding at 10 µM [8, 11]: 88% | percent of control binding at 10 µM [9, 11]: 87%
Structure (SMILES): CNCc1ccc(-c2[nH]c3cc(F)cc4c3c2CCNC4=O)cc1 [Rucaparib]

percent of control binding at 10 µM [1, 12]: 97% | percent of control binding at 10 µM [2, 12]: 96% | percent of control binding at 10 µM [3, 12]: 100% | percent of control binding at 10 µM [4, 12]: 97% | percent of control binding at 10 µM [5, 12]: 100% | percent of control binding at 10 µM [6, 12]: 87% | percent of control binding at 10 µM [7, 12]: 100% | percent of control binding at 10 µM [8, 12]: 100% | percent of control binding at 10 µM [9, 12]: 96%
Structure (SMILES): O=C(c1cc(Cc2n[nH]c(=O)c3ccccc23)ccc1F)N1CCN(C(=O)C2CC2)CC1 [Olaparib]

percent of control binding at 10 µM [1, 13]: 100% | percent of control binding at 10 µM [2, 13]: 56% | percent of control binding at 10 µM [3, 13]: 90% | percent of control binding at 10 µM [4, 13]: 80% | percent of control binding at 10 µM [5, 13]: 94% | percent of control binding at 10 µM [6, 13]: 100% | percent of control binding at 10 µM [7, 13]: 98% | percent of control binding at 10 µM [8, 13]: 94% | percent of control binding at 10 µM [9, 13]: 92%
Structure (SMILES): Cn1ncnc1[C@H]1c2n[nH]c(=O)c3cc(F)cc(c23)N[C@@H]1c1ccc(F)cc1 [Talazoparib]
